By pIC50 is commonly meant the IC50 on a negative log10 scale, so that one unit is a factor of ten. A word on the pEC50: it is −log10 of the EC50, conventionally taken in molar units. A lower pEC50 goes with a high EC50.

pEC50, pIC50: −log10 of the molar value.

Cytochrome P450 2C9, sequence (P11712 whole entry): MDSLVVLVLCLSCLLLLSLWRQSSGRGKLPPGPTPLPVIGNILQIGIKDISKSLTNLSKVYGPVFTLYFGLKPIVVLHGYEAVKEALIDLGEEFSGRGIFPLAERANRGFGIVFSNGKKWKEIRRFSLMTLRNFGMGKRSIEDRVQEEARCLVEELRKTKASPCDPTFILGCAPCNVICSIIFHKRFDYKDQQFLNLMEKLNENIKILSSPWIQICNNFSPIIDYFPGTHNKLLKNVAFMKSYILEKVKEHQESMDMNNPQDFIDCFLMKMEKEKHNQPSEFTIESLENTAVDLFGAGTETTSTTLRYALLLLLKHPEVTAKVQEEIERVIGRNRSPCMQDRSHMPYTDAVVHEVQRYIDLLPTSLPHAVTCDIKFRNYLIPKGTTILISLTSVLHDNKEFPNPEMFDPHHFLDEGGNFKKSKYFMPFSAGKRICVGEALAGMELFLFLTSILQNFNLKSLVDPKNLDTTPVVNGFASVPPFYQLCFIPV

The first data set addresses T1, Peroxisome proliferator-activated receptor gamma (Homo sapiens, UniProt P37231).
T1 sequence (P37231 whole entry): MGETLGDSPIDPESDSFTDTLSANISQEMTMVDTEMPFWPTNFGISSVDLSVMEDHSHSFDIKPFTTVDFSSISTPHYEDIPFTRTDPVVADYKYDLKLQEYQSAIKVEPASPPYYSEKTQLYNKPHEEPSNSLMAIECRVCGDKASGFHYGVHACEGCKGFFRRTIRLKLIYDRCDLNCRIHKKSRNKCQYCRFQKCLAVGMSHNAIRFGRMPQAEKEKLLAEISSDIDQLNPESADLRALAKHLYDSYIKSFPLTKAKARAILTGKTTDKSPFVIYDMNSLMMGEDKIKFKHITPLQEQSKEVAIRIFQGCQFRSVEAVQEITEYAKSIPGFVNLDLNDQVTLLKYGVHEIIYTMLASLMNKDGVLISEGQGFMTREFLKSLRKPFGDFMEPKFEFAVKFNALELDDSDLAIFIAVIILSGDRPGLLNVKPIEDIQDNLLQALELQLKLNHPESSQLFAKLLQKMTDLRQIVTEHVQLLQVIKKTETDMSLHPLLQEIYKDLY
Kind of data set: Inhibition of human peroxisome proliferator activated receptor gamma binding.
Conditions: not given
Consider `COc1ccc(C(=O)n2c(C)c(Cc3cccc(OCC#N)c3)c3cc(OC(F)(F)F)ccc32)cc1`, for which the pIC50 was 7.38.

Compound `Cc1c(Oc2cccc(O[C@@H](C)C(=O)O)c2)c2cc(OC(F)(F)F)ccc2n1-c1noc2cc(Cl)ccc12` gave a pIC50 of 7.48.

`COc1ccc(-n2c(C)c(Cc3cccc(O[C@@H](C)C(=O)O)c3)c3cc(OC(F)(F)F)ccc32)cc1` had a pIC50 of 9.00.

Compound `Cc1c(Oc2cc(Cl)cc(O[C@@H](C)C(=O)O)c2)c2cc(OC(F)(F)F)ccc2n1-c1noc2cc(Cl)ccc12` had a negative logarithm of the IC50 (pIC50) of 6.96.

`CN1C(=O)SC(Cc2ccc(OCCN(C)c3ccccn3)cc2)C1=O` (stereo not given) had a pIC50 below 4.30.

`Cc1c(Oc2cc(O[C@@H](C)C(=O)O)ccc2Cl)c2cc(OC(F)(F)F)ccc2n1-c1noc2cc(Cl)ccc12` had a pIC50 of 8.30.

The compound `COc1ccc2c(-n3c(C)c(Cc4cc(O[C@H](C)C(=O)O)ccc4Cl)c4cc(OC(F)(F)F)ccc43)noc2c1` had a pIC50 of 8.70.

Turning to `CCCc1ccc(Oc2c(C)n(-c3noc4cc(Cl)ccc34)c3ccc(OC(F)(F)F)cc23)cc1O[C@@H](C)C(=O)O`, the negative-log IC50 (pIC50) was 7.70.

Compound `COc1ccc2ncc(-n3c(C)c(Cc4cccc(O[C@@H](C)C(=O)O)c4)c4cc(OC(F)(F)F)ccc43)cc2c1` had a pIC50 of 7.54.

For `CCCc1c(Oc2c(C)n(-c3noc4cc(Cl)ccc34)c3ccc(OC(F)(F)F)cc23)cccc1O[C@@H](C)C(=O)O`, the pIC50 is 6.19.

For the compound `COc1ccc2nc(-n3c(C)c(Cc4cccc(O[C@@H](C)C(=O)O)c4)c4cc(OC(F)(F)F)ccc43)ccc2c1`, the pIC50 was 6.87.

Turning to `Cc1c(Oc2ccc(Cl)c(O[C@@H](C)C(=O)O)c2)c2cc(OC(F)(F)F)ccc2n1-c1noc2cc(Cl)ccc12`, the pIC50 is 9.00.

With `C#CCOc1cccc(Cc2c(C)n(C(=O)c3ccc(OC)cc3)c3ccc(OC(F)(F)F)cc23)c1`, the pIC50 was 7.21.

Consider `Cc1c(Cc2cccc(O[C@@H](C)C(=O)O)c2)c2cc(OC(F)(F)F)ccc2n1-c1ccccn1`, for which the negative-log IC50 (pIC50) was 6.33.

System in the next data set: not given
Particulars: mouse, in vivo, 10 mg/kg.
As for `CN(CCOc1ccc(CC2SC(=O)NC2=O)cc1)c1ccccn1` (stereo not given) [ROSIGLITAZONE], the AUC is 700 uMh.

System in another data set: not listed separately
Kind of data set: Area under plasma concentration time curve when administered to Sprague Dawley rats after once daily dosing for two weeks. Format: ADME. Particulars: rat.
As to `COc1ccc2c(-n3c(C)c(Cc4cc(O[C@H](C)C(=O)O)ccc4Cl)c4cc(OC(F)(F)F)ccc43)noc2c1`, the AUC is reported as 1030 uMh.

Take `CN(CCOc1ccc(CC2SC(=O)NC2=O)cc1)c1ccccn1` (stereo not given) [ROSIGLITAZONE]: the AUC came out at 2700 uMh.

A further data set has as its target T1, Peroxisome proliferator-activated receptor gamma.
Conditions: not given
As for `COc1ccc(C(=O)n2c(C)c(Cc3cccc(OCC#N)c3)c3cc(OC(F)(F)F)ccc32)cc1`, the pEC50 was 7.80.

In the case of `Cc1c(Oc2cccc(O[C@@H](C)C(=O)O)c2)c2cc(OC(F)(F)F)ccc2n1-c1noc2cc(Cl)ccc12`, the pEC50 was 6.71.

With `COc1ccc(-n2c(C)c(Cc3cccc(O[C@@H](C)C(=O)O)c3)c3cc(OC(F)(F)F)ccc32)cc1`, the pEC50 was 8.52.

Consider `Cc1c(Oc2cc(Cl)cc(O[C@@H](C)C(=O)O)c2)c2cc(OC(F)(F)F)ccc2n1-c1noc2cc(Cl)ccc12`, for which the pEC50 is 6.94.

In turn, `CN1C(=O)SC(Cc2ccc(OCCN(C)c3ccccn3)cc2)C1=O` (stereo not given) showed a pEC50 below 5.52.

The compound `Cc1c(Oc2cc(O[C@@H](C)C(=O)O)ccc2Cl)c2cc(OC(F)(F)F)ccc2n1-c1noc2cc(Cl)ccc12` showed a pEC50 of 8.52.

For the compound `COc1ccc2c(-n3c(C)c(Cc4cc(O[C@H](C)C(=O)O)ccc4Cl)c4cc(OC(F)(F)F)ccc43)noc2c1`, the pEC50 is 8.52.

Compound `CCCc1ccc(Oc2c(C)n(-c3noc4cc(Cl)ccc34)c3ccc(OC(F)(F)F)cc23)cc1O[C@@H](C)C(=O)O` gave a pEC50 of 7.41.

The compound `COc1ccc2ncc(-n3c(C)c(Cc4cccc(O[C@@H](C)C(=O)O)c4)c4cc(OC(F)(F)F)ccc43)cc2c1` gave a pEC50 of 7.31.

Compound `Cc1c(Oc2ccc(Cl)c(O[C@@H](C)C(=O)O)c2)c2cc(OC(F)(F)F)ccc2n1-c1noc2cc(Cl)ccc12` gave a pEC50 of 8.52.

In the case of `C#CCOc1cccc(Cc2c(C)n(C(=O)c3ccc(OC)cc3)c3ccc(OC(F)(F)F)cc23)c1`, the pEC50 is 7.51.

The next data set concerns the target Cytochrome P450 2C9 (Homo sapiens, UniProt P11712). Kind of data set: Inhibitory concentration against Cytochrome P450 2C9 in rats.
Conditions: not given
With `Cc1[nH]c2ccc(OC(F)(F)F)cc2c1Cc1cccc(O[C@@H](C)C(=O)O)c1`, the negative logarithm of the IC50 (pIC50) is 7.30.

System in the next data set: not listed separately
Kind of data set: Area under plasma concentration time curve when administered to db/db mice at 30 mg/kg dose. Format: ADME, organism-based. More on the design: dose 30 mg/kg. The conditions noted are these: mouse, in vivo.
`COc1ccc2c(-n3c(C)c(Cc4cc(O[C@H](C)C(=O)O)ccc4Cl)c4cc(OC(F)(F)F)ccc43)noc2c1` gave an AUC of 660 uMh.

These data come from ChEMBL document CHEMBL1145238, “Selective PPARgamma modulators with improved pharmacological profiles” (Bioorg Med Chem Lett, 2005).
